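Five compound concentrations were applied to cells in 96-well plates for 48 hours; endpoints were derived by simple linear interpolation of the resulting dose-response curve. GI50 marks 50% less growth.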 The source made the active and inactive calls. Cut-off read from the data, not from the text of the source: active = GI50 up to about 1.1 µM and inactive = higher.
Columns and labels:
Test in all cases: NCI tumour cell line growth inhibition, 48 h
[1] = tested on: HCC 2998
[2] = tested on: SK-OV-3
[3] = tested on: UO-31
[4] = tested on: TK-10
[5] = tested on: Malme-3M
[6] = tested on: NCI-H460
[7] = tested on: RPMI-8226
[8] = tested on: NCI-H23
[9] = tested on: SF-539
[10] = tested on: SNB-75
[11] = tested on: UACC-62
[12] = tested on: SK-MEL-28
[13] = tested on: DMS-114
[14] = tested on: SNB-78
[15] = tested on: UACC-257
[16] = tested on: SN12C
[17] = tested on: A549
[18] = tested on: SK-MEL-2
[19] = tested on: SNB-19
[20] = tested on: U-251
[21] = tested on: IGROV-1
[22] = tested on: HCT-116
[23] = tested on: KM12
[24] = tested on: COLO 205
[25] = tested on: ACHN
[26] = tested on: OVCAR-5
[27] = tested on: DMS-273
[28] = tested on: CCRF-CEM
[29] = tested on: OVCAR-4
[30] = tested on: LXFL 529
[31] = tested on: SF-295
[32] = tested on: SK-MEL-5
[33] = tested on: K562
[34] = tested on: A498
[35] = tested on: RXF 393
[36] = tested on: HT-29
[37] = tested on: RXF 631
[38] = tested on: OVCAR-3
[39] = tested on: LOX IMVI
[40] = tested on: SW-620
[41] = tested on: NCI-H226
[42] = tested on: HOP-92
[43] = tested on: M14
[44] = tested on: CAKI-1
[45] = tested on: 786-0
[46] = tested on: DLD-1
[47] = tested on: EKVX
[48] = tested on: KM-20L2
[49] = tested on: HCT-15
[50] = tested on: MOLT-4
[51] = tested on: SR
[52] = tested on: SF-268
[53] = tested on: HOP-62
[54] = tested on: M19-MEL
[55] = tested on: HOP-18
[56] = tested on: NCI-H522
[57] = tested on: OVCAR-8
[58] = tested on: XF498
[59] = tested on: HL-60

SMILES: Cc1ccccc1-c1c(N)nc(NC#N)nc1C(=O)Nc1ccccc1
- GI50 [1]: > 100 µM (inactive)
- GI50 [2]: > 100 µM (inactive)
- GI50 [3]: > 100 µM (inactive)
- GI50 [4]: > 100 µM (inactive)
- GI50 [5]: > 100 µM (inactive)
- GI50 [6]: > 100 µM (inactive)
- GI50 [7]: > 100 µM (inactive)
- GI50 [8]: > 100 µM (inactive)
- GI50 [9]: > 100 µM (inactive)
- GI50 [10]: 76.4 µM (inactive)
- GI50 [11]: > 100 µM (inactive)
- GI50 [12]: > 100 µM (inactive)
- GI50 [13]: > 100 µM (inactive)
- GI50 [14]: > 100 µM (inactive)
- GI50 [15]: > 100 µM (inactive)
- GI50 [16]: 99.8 µM (inactive)
- GI50 [17]: > 100 µM (inactive)
- GI50 [18]: 32.1 µM (inactive)
- GI50 [19]: > 100 µM (inactive)
- GI50 [20]: > 100 µM (inactive)
- GI50 [21]: > 100 µM (inactive)
- GI50 [22]: > 100 µM (inactive)
- GI50 [23]: > 100 µM (inactive)
- GI50 [24]: > 100 µM (inactive)
- GI50 [25]: > 100 µM (inactive)
- GI50 [26]: > 100 µM (inactive)
- GI50 [27]: > 100 µM (inactive)
- GI50 [28]: > 100 µM (inactive)
- GI50 [29]: > 100 µM (inactive)
- GI50 [30]: 67.1 µM (inactive)
- GI50 [31]: > 100 µM (inactive)
- GI50 [32]: > 100 µM (inactive)
- GI50 [33]: > 100 µM (inactive)
- GI50 [34]: > 100 µM (inactive)
- GI50 [35]: > 100 µM (inactive)
- GI50 [36]: > 100 µM (inactive)
- GI50 [37]: > 100 µM (inactive)
- GI50 [38]: > 100 µM (inactive)
- GI50 [39]: > 100 µM (inactive)
- GI50 [40]: > 100 µM (inactive)
- GI50 [41]: > 100 µM (inactive)
- GI50 [42]: 42.9 µM (inactive)
- GI50 [43]: > 100 µM (inactive)
- GI50 [44]: > 100 µM (inactive)
- GI50 [45]: > 100 µM (inactive)
- GI50 [46]: > 100 µM (inactive)
- GI50 [47]: > 100 µM (inactive)
- GI50 [48]: > 100 µM (inactive)
- GI50 [49]: > 100 µM
- GI50 [50]: > 100 µM (inactive)
- GI50 [51]: > 100 µM (inactive)
- GI50 [52]: > 100 µM (inactive)
- GI50 [53]: > 100 µM (inactive)
- GI50 [54]: > 100 µM (inactive)
- GI50 [55]: > 100 µM (inactive)

SMILES: CCc1c(Cc2[nH]c(Cc3[nH]c(C=O)c(C)c3CC)c(CC)c2CC)[nH]c(C=O)c1C
- GI50 [1]: > 100 µM (inactive)
- GI50 [2]: > 100 µM (inactive)
- GI50 [3]: > 100 µM (inactive)
- GI50 [4]: > 100 µM (inactive)
- GI50 [5]: > 100 µM (inactive)
- GI50 [6]: > 100 µM (inactive)
- GI50 [7]: > 100 µM (inactive)
- GI50 [9]: > 100 µM (inactive)
- GI50 [10]: 34.6 µM (inactive)
- GI50 [11]: > 100 µM (inactive)
- GI50 [12]: > 100 µM (inactive)
- GI50 [13]: > 100 µM (inactive)
- GI50 [14]: > 100 µM (inactive)
- GI50 [16]: > 100 µM (inactive)
- GI50 [17]: > 100 µM (inactive)
- GI50 [18]: > 10 µM (inactive)
- GI50 [19]: > 100 µM (inactive)
- GI50 [20]: > 100 µM (inactive)
- GI50 [22]: > 100 µM (inactive)
- GI50 [23]: > 10 µM (inactive)
- GI50 [24]: > 100 µM (inactive)
- GI50 [25]: > 100 µM (inactive)
- GI50 [27]: > 100 µM (inactive)
- GI50 [28]: 66.7 µM (inactive)
- GI50 [30]: > 100 µM (inactive)
- GI50 [31]: > 100 µM (inactive)
- GI50 [32]: > 100 µM (inactive)
- GI50 [33]: > 100 µM (inactive)
- GI50 [35]: 39 µM (inactive)
- GI50 [36]: > 100 µM (inactive)
- GI50 [38]: > 100 µM (inactive)
- GI50 [39]: > 100 µM (inactive)
- GI50 [40]: > 100 µM (inactive)
- GI50 [41]: > 100 µM (inactive)
- GI50 [56]: > 100 µM (inactive)
- GI50 [43]: > 100 µM (inactive)
- GI50 [57]: > 100 µM (inactive)
- GI50 [58]: > 100 µM (inactive)
- GI50 [44]: > 100 µM (inactive)
- GI50 [45]: > 100 µM (inactive)
- GI50 [46]: > 100 µM (inactive)
- GI50 [47]: > 100 µM (inactive)
- GI50 [48]: > 100 µM (inactive)
- GI50 [59]: > 100 µM (inactive)
- GI50 [49]: > 100 µM
- GI50 [50]: > 100 µM (inactive)
- GI50 [51]: > 100 µM (inactive)
- GI50 [52]: > 100 µM (inactive)
- GI50 [53]: > 100 µM (inactive)
- GI50 [54]: > 100 µM (inactive)
- GI50 [55]: > 100 µM (inactive)

SMILES: Nc1cc(O)nc(SC2=NC(N)CC(O)C2)n1 (stereo not drawn)
- GI50 [1]: > 100 µM (inactive)
- GI50 [2]: > 100 µM (inactive)
- GI50 [3]: > 100 µM (inactive)
- GI50 [4]: > 100 µM (inactive)
- GI50 [5]: > 100 µM (inactive)
- GI50 [6]: > 100 µM (inactive)
- GI50 [7]: > 100 µM (inactive)
- GI50 [8]: > 100 µM (inactive)
- GI50 [9]: > 100 µM (inactive)
- GI50 [10]: > 100 µM (inactive)
- GI50 [11]: > 100 µM (inactive)
- GI50 [12]: > 100 µM (inactive)
- GI50 [13]: > 100 µM (inactive)
- GI50 [14]: > 100 µM (inactive)
- GI50 [15]: > 100 µM (inactive)
- GI50 [16]: > 100 µM (inactive)
- GI50 [18]: > 100 µM (inactive)
- GI50 [19]: > 100 µM (inactive)
- GI50 [20]: > 100 µM (inactive)
- GI50 [21]: > 100 µM (inactive)
- GI50 [23]: > 100 µM (inactive)
- GI50 [24]: > 100 µM (inactive)
- GI50 [25]: > 100 µM (inactive)
- GI50 [26]: > 100 µM (inactive)
- GI50 [27]: > 100 µM (inactive)
- GI50 [28]: > 100 µM (inactive)
- GI50 [29]: > 100 µM (inactive)
- GI50 [30]: > 100 µM (inactive)
- GI50 [31]: > 100 µM (inactive)
- GI50 [32]: > 100 µM (inactive)
- GI50 [33]: > 100 µM (inactive)
- GI50 [36]: > 100 µM (inactive)
- GI50 [38]: > 100 µM (inactive)
- GI50 [39]: > 100 µM (inactive)
- GI50 [40]: 42.5 µM (inactive)
- GI50 [41]: > 100 µM (inactive)
- GI50 [56]: > 100 µM (inactive)
- GI50 [42]: > 100 µM (inactive)
- GI50 [43]: > 100 µM (inactive)
- GI50 [57]: > 100 µM (inactive)
- GI50 [58]: > 100 µM (inactive)
- GI50 [44]: > 100 µM (inactive)
- GI50 [45]: > 100 µM (inactive)
- GI50 [46]: > 100 µM (inactive)
- GI50 [47]: > 100 µM (inactive)
- GI50 [48]: > 100 µM (inactive)
- GI50 [49]: > 100 µM
- GI50 [50]: > 100 µM (inactive)
- GI50 [51]: > 100 µM (inactive)
- GI50 [53]: > 100 µM (inactive)
- GI50 [54]: > 100 µM (inactive)
- GI50 [55]: > 100 µM (inactive)

From ChEMBL document CHEMBL1201862, “PubChem BioAssay data set” (2004)
